According to BindingDB's records for doi:10.1016/s0960-894x(99)00012-8 (Nippon Steel, 1999):

Key:
[1] = Inhibitory activity against bovine pancreatic alpha-chymotrypsin (alpha-CT)
[2] = Inhibitory activity against porcine pancreatic trypsin (TRP)
[3] = Inhibitory activity against porcine pancreatic elastase (PPE)
[4] = Inhibitory activity against porcine pancreatic trypsin (TRP); remark: listed apart in the source

Structure (SMILES) | IC50 [1] | IC50 [2] | IC50 [3] | IC50 [4]
CCCCC(NC(=O)c1ccccc1)C(C)(C)C(=O)OC(=O)C(C)(C)C(CCCC)NC(=O)c1ccccc1 (centres undefined) [1,1-dimethyl-2-phenylcarboxamidoheptanoic anhydride] | 5.3 nM | – | 34 nM | 2900 nM
CCCCCC(NC(=O)c1ccccc1)C(C)(C)C(=O)OC(=O)C(C)(C)C(CCCCC)NC(=O)c1ccccc1 (centres undefined) [1,1-dimethyl-2-phenylcarboxamidooctanoic anhydride] | 31 nM | – | 61 nM | 3900 nM
CC(C)(C(=O)OC(=O)C(C)(C)C(CCc1ccccc1)NC(=O)c1ccccc1)C(CCc1ccccc1)NC(=O)c1ccccc1 (centres undefined) [1,1-dimethyl-4-phenyl-2-phenylcarboxamidopentanoic anhydride] | 18 nM | – | 64 nM | 2700 nM
CCCC(=O)NC(CCc1ccccc1)C(C)(C)C(=O)OC(=O)C(C)(C)C(CCc1ccccc1)NC(=O)CCC (centres undefined) [1,1-dimethyl-4-phenyl-2-propylcarboxamidopentanoic anhydride] | – | – | – | 1200 nM
CCCC(NC(=O)c1ccccc1)C(C)(C)C(=O)OC(=O)C(C)(C)C(CCC)NC(=O)c1ccccc1 (centres undefined) [1,1-dimethyl-2-phenylcarboxamidohexanoic anhydride] | 49 nM | – | – | 8800 nM
CC(C)(C(=O)OC(=O)C(C)(C)C(NC(=O)c1ccc(C#N)cc1)c1ccccc1Cl)C(NC(=O)c1ccc(C#N)cc1)c1ccccc1Cl (centres undefined) [2-(2-chlorophenyl)-2-(4-cyanophenylcarboxamido)-1,1-dimethylpropanoic anhydride] | 250 nM | 8200 nM | 1100 nM | –
CC(C)(C(=O)OC(=O)C(C)(C)C(NC(=O)c1ccc(C#N)cc1)C1CC=CCC1)C(NC(=O)c1ccc(C#N)cc1)C1CC=CCC1 (centres undefined) [2-(4-cyanophenylcarboxamido)-2-cyclohex-3-enyl-1,1-dimethylpropanoic anhydride] | 220 nM | – | 180 nM | 1600 nM
CCCCCC(NC(=O)CCC)C(C)(C)C(=O)OC(=O)C(C)(C)C(CCCCC)NC(=O)CCC (centres undefined) [1,1-dimethyl-2-propylcarboxamidooctanoic anhydride] | 810 nM | – | 55 nM | 18000 nM

More lines, in order of falling IC50 [1], values ahead:

IC50 [1] | IC50 [2] | IC50 [3] | IC50 [4] | Structure (SMILES)
190 nM | 18000 nM | 2100 nM | – | Cc1ccccc1C(NC(=O)c1ccc(C#N)cc1)C(C)(C)C(=O)OC(=O)C(C)(C)C(NC(=O)c1ccc(C#N)cc1)c1ccccc1C (centres undefined) [2-(4-cyanophenylcarboxamido)-1,1-dimethyl-2-(2-methylphenyl)propanoic anhydride]
140 nM | – | 2600 nM | 990 nM | CC(C)(CNC(=O)c1ccccc1)C(=O)OC(=O)C(C)(C)CNC(=O)c1ccccc1 [1,1-dimethyl-2-phenylcarboxamidopropanoic anhydride]
72 nM | – | 210 nM | 2200 nM | CCC(NC(=O)c1ccccc1)C(C)(C)C(=O)OC(=O)C(C)(C)C(CC)NC(=O)c1ccccc1 (centres undefined) [1,1-dimethyl-2-phenylcarboxamidopentanoic anhydride]
44 nM | – | 180 nM | 3300 nM | CCCCCCC(NC(=O)c1ccccc1)C(C)(C)C(=O)OC(=O)C(C)(C)C(CCCCCC)NC(=O)c1ccccc1 (centres undefined) [1,1-dimethyl-2-phenylcarboxamidononanoic anhydride]
15 nM | 1800 nM | 210 nM | – | CC(C)(C(=O)OC(=O)C(C)(C)C(NC(=O)c1ccc(C#N)cc1)c1ccccc1)C(NC(=O)c1ccc(C#N)cc1)c1ccccc1 (centres undefined) [2-(4-cyanophenylcarboxamido)-1,1-dimethyl-2-phenylpropanoic anhydride]
2.1 nM | 300 nM | 36 nM | – | CC(C)(C(=O)OC(=O)C(C)(C)C(CCc1ccccc1)NC(=O)c1ccc(C#N)cc1)C(CCc1ccccc1)NC(=O)c1ccc(C#N)cc1 (centres undefined) [[2,2-dimethyl-3-(N-(4-cyanobenzoyl)aminoi)-5-phenylpentanoic anhydride]]
